Article PMC6199744, “Development of Chemical Proteomics for the Folateome and Analysis of the Kinetoplastid Folateome” (ACS Infectious Diseases, 2018)
Like-named read-outs stand apart in the source and are kept apart here.

Key:
Assay type in all cases: binding
[1] = molecular target: T1, HeLa cell extract proteins (Homo sapiens, UniProt Q7Z3U7)
T1 construct: endogenous in cells; host or cells: HeLa cell extract

[2] = molecular target: T2, HeLa cell extract proteins (Homo sapiens, UniProt P06744)
T2 construct: endogenous in cells; host or cells: HeLa cell extract

[3] = molecular target: T3, HeLa cell extract proteins (Homo sapiens, UniProt P04183)
T3 construct: endogenous in cells; host or cells: HeLa cell extract
T3 sequence (P04183 1-234): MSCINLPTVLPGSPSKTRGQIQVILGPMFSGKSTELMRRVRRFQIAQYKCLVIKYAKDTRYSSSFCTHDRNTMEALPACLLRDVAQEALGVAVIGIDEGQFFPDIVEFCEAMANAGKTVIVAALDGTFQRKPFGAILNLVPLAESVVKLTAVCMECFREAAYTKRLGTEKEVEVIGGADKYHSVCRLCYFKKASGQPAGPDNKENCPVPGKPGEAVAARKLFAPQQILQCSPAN

[4] = molecular target: T4, HeLa cell extract proteins (Homo sapiens, UniProt P04792)
T4 construct: endogenous in cells; host or cells: HeLa cell extract

[5] = molecular target: T5, HeLa cell extract proteins (Homo sapiens, UniProt Q9H583)
T5 construct: endogenous in cells; host or cells: HeLa cell extract

[6] = molecular target: T6, HeLa cell extract proteins (Homo sapiens, UniProt P15559)
T6 construct: endogenous in cells; host or cells: HeLa cell extract

[7] = molecular target: T7, HeLa cell extract proteins (Homo sapiens, UniProt Q6YN16)
T7 construct: endogenous in cells; host or cells: HeLa cell extract
T7 sequence (Q6YN16 1-418): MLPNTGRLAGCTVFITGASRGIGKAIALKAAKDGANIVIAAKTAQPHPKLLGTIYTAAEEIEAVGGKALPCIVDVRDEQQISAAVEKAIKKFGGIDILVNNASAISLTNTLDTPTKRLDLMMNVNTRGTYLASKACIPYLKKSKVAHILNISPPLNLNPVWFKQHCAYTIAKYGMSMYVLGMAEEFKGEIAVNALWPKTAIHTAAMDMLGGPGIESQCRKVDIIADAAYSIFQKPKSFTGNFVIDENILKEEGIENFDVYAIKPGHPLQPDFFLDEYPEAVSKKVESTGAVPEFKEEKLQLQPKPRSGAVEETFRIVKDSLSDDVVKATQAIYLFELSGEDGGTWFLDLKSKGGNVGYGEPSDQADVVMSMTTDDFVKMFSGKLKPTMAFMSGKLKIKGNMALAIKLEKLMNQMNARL

[8] = molecular target: T8, HeLa cell extract proteins (Homo sapiens, UniProt Q92973)
T8 construct: endogenous in cells; host or cells: HeLa cell extract
T8 sequence (Q92973 1-898): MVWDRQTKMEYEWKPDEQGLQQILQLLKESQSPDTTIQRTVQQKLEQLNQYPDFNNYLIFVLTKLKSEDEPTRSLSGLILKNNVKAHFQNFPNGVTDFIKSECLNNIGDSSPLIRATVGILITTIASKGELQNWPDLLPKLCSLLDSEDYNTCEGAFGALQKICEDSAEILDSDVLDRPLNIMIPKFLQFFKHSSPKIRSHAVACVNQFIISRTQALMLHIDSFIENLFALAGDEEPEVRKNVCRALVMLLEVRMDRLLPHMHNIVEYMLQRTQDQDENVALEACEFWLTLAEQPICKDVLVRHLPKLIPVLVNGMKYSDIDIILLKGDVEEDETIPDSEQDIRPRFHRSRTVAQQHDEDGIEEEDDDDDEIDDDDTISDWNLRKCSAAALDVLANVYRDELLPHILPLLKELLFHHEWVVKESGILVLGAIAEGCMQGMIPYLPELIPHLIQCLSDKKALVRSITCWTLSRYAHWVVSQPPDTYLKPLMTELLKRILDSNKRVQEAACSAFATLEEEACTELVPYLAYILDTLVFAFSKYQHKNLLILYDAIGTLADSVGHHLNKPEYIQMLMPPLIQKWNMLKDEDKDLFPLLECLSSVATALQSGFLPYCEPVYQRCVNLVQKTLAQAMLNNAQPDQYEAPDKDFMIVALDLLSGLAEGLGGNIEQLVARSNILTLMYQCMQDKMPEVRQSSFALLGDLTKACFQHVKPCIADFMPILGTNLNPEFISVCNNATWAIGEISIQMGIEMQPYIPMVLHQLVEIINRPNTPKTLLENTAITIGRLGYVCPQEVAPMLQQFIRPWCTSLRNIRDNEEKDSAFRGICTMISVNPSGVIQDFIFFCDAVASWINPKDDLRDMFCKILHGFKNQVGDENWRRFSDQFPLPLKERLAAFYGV

[9] = molecular target: T9, HeLa cell extract proteins (Homo sapiens, UniProt Q12931)
T9 construct: endogenous in cells; host or cells: HeLa cell extract
T9 sequence (Q12931 60-704): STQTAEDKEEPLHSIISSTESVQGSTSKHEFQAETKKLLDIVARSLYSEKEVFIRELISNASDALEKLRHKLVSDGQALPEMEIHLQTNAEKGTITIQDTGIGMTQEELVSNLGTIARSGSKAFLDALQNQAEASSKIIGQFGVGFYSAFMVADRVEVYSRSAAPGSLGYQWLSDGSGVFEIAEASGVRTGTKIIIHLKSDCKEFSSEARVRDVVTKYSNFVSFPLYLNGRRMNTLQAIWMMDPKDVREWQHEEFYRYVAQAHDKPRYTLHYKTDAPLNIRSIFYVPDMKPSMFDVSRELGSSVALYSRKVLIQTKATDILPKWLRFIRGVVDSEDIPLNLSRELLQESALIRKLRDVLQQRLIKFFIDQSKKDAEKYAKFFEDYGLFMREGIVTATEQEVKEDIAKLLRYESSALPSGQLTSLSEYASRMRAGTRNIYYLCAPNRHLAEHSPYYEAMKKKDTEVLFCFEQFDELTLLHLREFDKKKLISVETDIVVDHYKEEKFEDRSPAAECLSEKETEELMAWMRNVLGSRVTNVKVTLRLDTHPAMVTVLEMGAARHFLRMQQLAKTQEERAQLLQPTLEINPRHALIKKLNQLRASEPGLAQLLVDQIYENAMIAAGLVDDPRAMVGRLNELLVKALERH

[10] = molecular target: T10, HeLa cell extract proteins (Homo sapiens, UniProt Q16831)
T10 construct: endogenous in cells; host or cells: HeLa cell extract

[11] = HeLa, protein GPI (CDNA FLJ56429, HIGHLY SIMILAR TO GLUCOSE-6-PHOSPHATE ISOMERASE.)
[12] = HeLa, protein TK1 (29 KDA PROTEIN)
[13] = HeLa, protein UPP1 (ISOFORM 1 OF URIDINE PHOSPHORYLASE 1)

T10 sequence (Q16831 whole entry): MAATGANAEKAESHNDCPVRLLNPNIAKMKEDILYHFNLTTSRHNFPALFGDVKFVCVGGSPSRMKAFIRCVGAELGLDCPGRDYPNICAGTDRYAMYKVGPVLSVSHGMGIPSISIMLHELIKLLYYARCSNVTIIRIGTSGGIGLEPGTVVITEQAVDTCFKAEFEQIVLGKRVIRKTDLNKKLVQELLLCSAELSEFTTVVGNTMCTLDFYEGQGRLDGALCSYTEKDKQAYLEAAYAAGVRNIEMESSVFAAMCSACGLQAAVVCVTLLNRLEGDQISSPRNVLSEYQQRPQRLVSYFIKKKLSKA
T1 sequence (Q7Z3U7 whole entry): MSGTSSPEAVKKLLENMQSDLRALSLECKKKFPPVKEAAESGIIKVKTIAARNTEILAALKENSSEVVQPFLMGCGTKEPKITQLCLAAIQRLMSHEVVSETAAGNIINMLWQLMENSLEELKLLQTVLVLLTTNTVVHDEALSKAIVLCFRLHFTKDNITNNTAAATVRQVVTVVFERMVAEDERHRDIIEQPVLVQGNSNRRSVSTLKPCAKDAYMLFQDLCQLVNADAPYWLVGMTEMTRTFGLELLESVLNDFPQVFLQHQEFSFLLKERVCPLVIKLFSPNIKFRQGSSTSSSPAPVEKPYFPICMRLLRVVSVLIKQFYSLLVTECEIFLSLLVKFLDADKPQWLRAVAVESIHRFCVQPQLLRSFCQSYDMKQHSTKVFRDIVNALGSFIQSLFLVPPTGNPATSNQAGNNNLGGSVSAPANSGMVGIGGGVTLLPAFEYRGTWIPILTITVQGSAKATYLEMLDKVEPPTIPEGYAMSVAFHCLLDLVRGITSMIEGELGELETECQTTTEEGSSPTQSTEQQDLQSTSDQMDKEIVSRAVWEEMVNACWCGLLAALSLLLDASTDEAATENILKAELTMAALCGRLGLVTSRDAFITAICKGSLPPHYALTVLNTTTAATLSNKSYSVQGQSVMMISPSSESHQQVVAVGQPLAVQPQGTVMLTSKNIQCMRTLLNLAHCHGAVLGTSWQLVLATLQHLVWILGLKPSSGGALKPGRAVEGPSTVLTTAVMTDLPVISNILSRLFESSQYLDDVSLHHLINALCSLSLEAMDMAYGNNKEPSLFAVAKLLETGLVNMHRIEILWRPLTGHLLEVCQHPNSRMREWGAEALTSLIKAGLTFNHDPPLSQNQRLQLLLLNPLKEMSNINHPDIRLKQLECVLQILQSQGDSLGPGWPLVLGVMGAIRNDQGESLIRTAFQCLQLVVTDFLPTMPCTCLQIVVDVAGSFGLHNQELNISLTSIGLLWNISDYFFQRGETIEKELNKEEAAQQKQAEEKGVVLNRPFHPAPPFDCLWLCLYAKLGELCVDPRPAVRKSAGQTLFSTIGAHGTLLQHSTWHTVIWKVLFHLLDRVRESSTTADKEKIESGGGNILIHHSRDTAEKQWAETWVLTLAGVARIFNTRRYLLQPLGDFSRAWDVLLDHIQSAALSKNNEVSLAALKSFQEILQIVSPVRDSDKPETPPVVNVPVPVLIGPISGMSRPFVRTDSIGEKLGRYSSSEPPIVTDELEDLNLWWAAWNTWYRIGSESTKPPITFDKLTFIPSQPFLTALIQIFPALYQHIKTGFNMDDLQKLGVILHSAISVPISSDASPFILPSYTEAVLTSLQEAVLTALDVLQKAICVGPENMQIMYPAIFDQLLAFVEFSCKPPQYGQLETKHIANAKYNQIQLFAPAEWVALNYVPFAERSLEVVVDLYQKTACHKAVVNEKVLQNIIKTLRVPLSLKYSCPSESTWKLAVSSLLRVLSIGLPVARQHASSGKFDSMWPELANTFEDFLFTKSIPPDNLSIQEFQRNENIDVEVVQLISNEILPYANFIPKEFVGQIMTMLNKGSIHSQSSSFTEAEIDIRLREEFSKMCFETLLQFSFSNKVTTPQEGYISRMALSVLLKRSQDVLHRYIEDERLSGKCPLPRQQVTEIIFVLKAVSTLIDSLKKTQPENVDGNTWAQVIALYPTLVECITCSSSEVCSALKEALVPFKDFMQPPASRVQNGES
T5 sequence (Q9H583 whole entry): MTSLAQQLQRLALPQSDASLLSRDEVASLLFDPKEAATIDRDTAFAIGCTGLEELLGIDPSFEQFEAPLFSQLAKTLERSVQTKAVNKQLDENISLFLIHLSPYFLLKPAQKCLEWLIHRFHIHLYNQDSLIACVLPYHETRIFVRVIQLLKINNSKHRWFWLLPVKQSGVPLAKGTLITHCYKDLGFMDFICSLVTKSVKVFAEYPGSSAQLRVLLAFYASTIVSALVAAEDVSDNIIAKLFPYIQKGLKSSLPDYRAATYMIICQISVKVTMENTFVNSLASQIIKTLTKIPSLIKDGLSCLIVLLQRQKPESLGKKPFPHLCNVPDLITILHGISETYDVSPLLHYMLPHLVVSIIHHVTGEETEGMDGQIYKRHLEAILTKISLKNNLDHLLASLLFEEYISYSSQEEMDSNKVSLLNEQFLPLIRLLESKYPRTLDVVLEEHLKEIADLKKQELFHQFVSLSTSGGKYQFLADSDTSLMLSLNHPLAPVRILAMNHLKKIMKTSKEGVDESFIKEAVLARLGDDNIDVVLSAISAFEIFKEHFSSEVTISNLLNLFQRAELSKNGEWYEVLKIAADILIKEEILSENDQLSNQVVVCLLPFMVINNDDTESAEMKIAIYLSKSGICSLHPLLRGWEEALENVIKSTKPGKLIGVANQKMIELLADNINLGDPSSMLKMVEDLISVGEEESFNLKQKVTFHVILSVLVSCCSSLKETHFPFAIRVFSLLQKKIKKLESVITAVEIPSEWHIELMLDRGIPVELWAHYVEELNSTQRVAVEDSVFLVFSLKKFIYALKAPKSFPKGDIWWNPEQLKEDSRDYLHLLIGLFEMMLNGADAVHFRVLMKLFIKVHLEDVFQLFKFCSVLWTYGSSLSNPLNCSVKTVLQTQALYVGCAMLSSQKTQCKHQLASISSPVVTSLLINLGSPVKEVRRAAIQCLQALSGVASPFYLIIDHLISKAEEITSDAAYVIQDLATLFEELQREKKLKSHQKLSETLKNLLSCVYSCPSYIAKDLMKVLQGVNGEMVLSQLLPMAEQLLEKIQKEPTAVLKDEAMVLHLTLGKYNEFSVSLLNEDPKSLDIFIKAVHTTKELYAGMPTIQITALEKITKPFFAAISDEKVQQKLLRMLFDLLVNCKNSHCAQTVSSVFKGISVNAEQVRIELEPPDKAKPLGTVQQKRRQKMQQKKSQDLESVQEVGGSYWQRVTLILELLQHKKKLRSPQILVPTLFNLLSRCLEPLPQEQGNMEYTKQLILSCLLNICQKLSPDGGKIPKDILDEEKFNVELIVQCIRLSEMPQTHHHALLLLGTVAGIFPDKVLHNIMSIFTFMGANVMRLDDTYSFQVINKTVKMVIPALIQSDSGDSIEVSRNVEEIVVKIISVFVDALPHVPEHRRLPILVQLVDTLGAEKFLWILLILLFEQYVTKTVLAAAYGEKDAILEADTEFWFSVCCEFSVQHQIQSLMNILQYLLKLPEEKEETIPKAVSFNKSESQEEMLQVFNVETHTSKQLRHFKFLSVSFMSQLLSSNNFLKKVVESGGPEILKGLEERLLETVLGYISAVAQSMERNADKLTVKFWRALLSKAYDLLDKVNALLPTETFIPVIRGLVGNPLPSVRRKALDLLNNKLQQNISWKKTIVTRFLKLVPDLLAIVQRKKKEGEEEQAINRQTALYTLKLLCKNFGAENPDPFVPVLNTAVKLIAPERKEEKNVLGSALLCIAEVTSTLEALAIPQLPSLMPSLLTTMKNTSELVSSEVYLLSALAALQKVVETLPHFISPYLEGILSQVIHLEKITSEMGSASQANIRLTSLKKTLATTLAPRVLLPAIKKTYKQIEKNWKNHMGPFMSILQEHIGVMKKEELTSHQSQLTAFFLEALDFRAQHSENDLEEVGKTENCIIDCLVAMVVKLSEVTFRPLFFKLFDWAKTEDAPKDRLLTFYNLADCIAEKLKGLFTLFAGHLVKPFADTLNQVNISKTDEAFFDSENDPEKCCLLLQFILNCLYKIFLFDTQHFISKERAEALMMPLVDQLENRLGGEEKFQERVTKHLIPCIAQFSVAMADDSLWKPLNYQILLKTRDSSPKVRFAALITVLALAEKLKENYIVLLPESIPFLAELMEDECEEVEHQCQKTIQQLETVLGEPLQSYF
T4 sequence (P04792 whole entry): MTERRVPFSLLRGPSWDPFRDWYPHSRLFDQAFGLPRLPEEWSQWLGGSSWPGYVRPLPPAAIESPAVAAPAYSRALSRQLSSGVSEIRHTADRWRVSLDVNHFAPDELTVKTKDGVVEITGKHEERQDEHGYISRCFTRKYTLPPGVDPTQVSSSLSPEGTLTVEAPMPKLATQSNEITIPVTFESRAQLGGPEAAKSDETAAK
T6 sequence (P15559 whole entry): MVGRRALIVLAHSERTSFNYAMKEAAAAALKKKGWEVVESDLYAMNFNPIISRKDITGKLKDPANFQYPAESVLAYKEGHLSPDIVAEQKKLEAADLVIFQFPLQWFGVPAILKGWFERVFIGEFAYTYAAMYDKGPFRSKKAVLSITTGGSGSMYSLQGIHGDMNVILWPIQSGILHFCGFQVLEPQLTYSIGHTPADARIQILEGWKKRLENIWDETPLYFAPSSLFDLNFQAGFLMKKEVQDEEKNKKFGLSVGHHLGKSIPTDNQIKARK

Structure (SMILES) | fold changes relative to vehicle control ([1]; HeLa, protein MON2) | fold changes relative to vehicle control [2, 11] | fold changes relative to vehicle control ([3]; protein TK1, HeLa) | fold changes relative to vehicle control ([4]; protein HSPB1, HeLa) | fold changes relative to vehicle control ([5]; HeLa, protein HEATR1) | fold changes relative to vehicle control ([6]; HeLa, protein NQO1) | fold changes relative to vehicle control ([7]; protein HSDL2, HeLa) | fold changes relative to vehicle control ([8]; protein TNPO1, HeLa) | fold changes relative to vehicle control ([9]; protein TRAP1, HeLa) | fold changes relative to vehicle control ([10]; HeLa, protein UPP1) | fold changes relative to vehicle control ([1]; HeLa, captured protein MON2) | fold changes relative to vehicle control ([2]; HeLa, protein GPI) | fold changes relative to vehicle control [3, 12] | fold changes relative to vehicle control ([4]; HeLa, protein HSPB1) | fold changes relative to vehicle control ([6]; protein NQO1, HeLa) | fold changes relative to vehicle control ([7]; HeLa, protein HSDL2) | fold changes relative to vehicle control ([8]; HeLa, protein TNPO1) | fold changes relative to vehicle control [10, 13] | also measured
Nc1nc2cccc(-c3ccccc3)c2n1Cc1ccc(Cl)c(Cl)c1 [compound 3] | 1.18 | 0.93 fold | 1.16 | 0.88 | 1.12 | 1.13 | 0.96 | 1 | 1.06 | 1.05 |  |  |  |  |  |  |  |  | 
CCCCCCOc1ccc(Cc2cnc(N)nc2N)cc1 [compound 1] | 1.11 | 1.37 fold | 0.96 | 1.09 | 1.14 | 1.12 | 1.11 | 1.01 | 1.27 | 0.88 |  |  |  |  |  |  |  |  | 
NCCCNc1ccc(C(=O)NC(CCC(=O)O)C(=O)O)cc1 (stereo not shown) [compound 7] |  |  |  |  | 1.04 |  |  |  | 1.01 |  | 1.25 | 0.96 | 1.12 | 0.94 | 2.36 | 1.02 | 0.99 | 0.96 | 
CCCCCCOc1cccc(Cc2cnc(N)nc2N)c1 [compound 2] | 1.08 | 2.26 fold | 1.16 | 1.38 | 1.2 | 1.22 | 1.23 | 1.1 | 1.77 | 1.16 |  |  |  |  |  |  |  |  | 
NCCOCCOCC(=O)Nc1nc2ncc(CNc3ccc(C(=O)NC(CCC(=O)O)C(=O)O)cc3)nc2c(=O)[nH]1 (stereo not shown) [compound 6] |  |  |  |  | 1.09 |  |  |  | 1.2 |  | 1.17 | 1.23 | 1.06 | 1.07 | 0.6 | 1.04 | 1.03 | 0.44 | 
Nc1nc2[nH]cc(CCc3ccc(C(=O)N[C@@H](CCC(=O)O)C(=O)O)cc3)c2c(=O)[nH]1 [PTX, pemetrexed] |  |  |  |  |  |  |  |  |  |  |  |  |  |  |  |  |  |  | fold changes relative to vehicle control [1]: 1.05; fold changes relative to vehicle control [2]: 1.08; fold changes relative to vehicle control [3]: 0.93; fold changes relative to vehicle control [4]: 1; fold changes relative to vehicle control [5]: 0.98; fold changes relative to vehicle control [6]: 0.92; fold changes relative to vehicle control [7]: 0.96; fold changes relative to vehicle control [8]: 0.94; fold changes relative to vehicle control [9]: 1.02; fold changes relative to vehicle control [10]: 1.11
Nc1nc2c(c(=O)[nH]1)N(C=O)C(CNc1ccc(C(=O)N[C@@H](CCC(=O)O)C(=O)O)cc1)CN2 (stereo partly shown) [LEU, leucovorin] |  |  |  |  | 0.94 |  |  |  | 0.95 |  | 1.04 | 0.98 | 0.97 | 1.01 | 1.12 | 0.96 | 0.98 | 1.01 | 
